“And” between values parts separate entries of the source, which are not always exact repeats. Equal values may be shown once. Toxic doses and inconclusive results are not listed. How the source made its calls: active means survival T/C of 150% or more; inactive means T/C below 125% in these data.
Tested on: P388 leukemia ip, CD2F1 mice, survival T/C
Assay: NCI In Vivo Anticancer Drug Screen. Data for tumor model P388 Leukemia (intraperitoneal) in CD2F1 (CDF1) mice
Conditions: endpoint: median survival time, higher = longer survival
How it was run: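 Mice carrying the transplanted tumor received test compound or vehicle. Survival was recorded in each group, and the value is the treated-group measurement divided by that of the vehicle-treated control group.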

Measured: T/C

O=C1c2ccccc2C(=O)c2c(NCCNCCO)ccc(NCCNCCO)c21
active: dose: 0.5 mg/kg/injection, schedule: Q01DX009 (ip), vehicle: water 165 % of control | dose: 1.0 mg/kg/injection, schedule: Q01DX009 (ip), vehicle: water 167 % of control | dose: 1.25 mg/kg/injection, schedule: Q01DX009 (ip), vehicle: saline 192 % of control | dose: 1.25 mg/kg/injection, schedule: Q01DX009 (ip), vehicle: water 155 % of control | dose: 2.0 mg/kg/injection, schedule: Q01DX009 (ip), vehicle: saline 199 % of control | dose: 3.13 mg/kg/injection, schedule: Q01DX005 (ip), vehicle: saline 169 % of control | dose: 3.89 mg/kg/injection, schedule: Q01DX009 (ip), vehicle: saline 200 % of control and 261 % of control | dose: 4.0 mg/kg/injection, schedule: Q01DX009 (ip), vehicle: saline 233 % of control | dose: 5.0 mg/kg/injection, schedule: Q01DX005 (ip), vehicle: saline 223 % of control | dose: 6.25 mg/kg/injection, schedule: Q01DX005 (ip), vehicle: saline 205 % of control | dose: 6.25 mg/kg/injection, schedule: Q01DX009 (ip), vehicle: water 156 % of control | dose: 6.48 mg/kg/injection, schedule: Q01DX009 (ip), vehicle: saline 207 % of control and 245 % of control | dose: 7.78 mg/kg/injection, schedule: Q01DX005 (ip), vehicle: saline 261 % of control | dose: 7.78 mg/kg/injection, schedule: Q04DX003 (ip), vehicle: saline 181 % of control | dose: 8.0 mg/kg/injection, schedule: Q04DX003 (ip), vehicle: Klucel (hydroxypropylcellulose) (HPC) 172 % of control | dose: 8.0 mg/kg/injection, schedule: Q04DX003 (ip), vehicle: saline 153 % of control | dose: 10.0 mg/kg/injection, schedule: Q01DX005 (ip), vehicle: saline 258 % of control | dose: 10.0 mg/kg/injection, schedule: Q04DX003 (ip), vehicle: saline 178 % of control | dose: 10.4 mg/kg/injection, schedule: Q04DX003 (ip), vehicle: saline 196 % of control and 208 % of control | dose: 10.8 mg/kg/injection, schedule: Q01DX009 (ip), vehicle: saline 209 % of control | dose: 10.8 mg/kg/injection, schedule: Q01DX009 (sc), vehicle: saline 178 % of control | dose: 12.5 mg/kg/injection, schedule: Q01DX005 (ip), vehicle: saline 241 % of control | dose: 12.5 mg/kg/injection, schedule: Q01DX009 (ip), vehicle: water 187 % of control | dose: 12.5 mg/kg/injection, schedule: Q04DX003 (ip), vehicle: saline 176 % of control | dose: 13.0 mg/kg/injection, schedule: Q01DX005 (iv), vehicle: saline 161 % of control | dose: 13.0 mg/kg/injection, schedule: Q04DX003 (ip), vehicle: saline 156 % of control and 203 % of control | dose: 13.8 mg/kg/injection, schedule: Q04DX003 (ip), vehicle: saline 209 % of control | dose: 16.0 mg/kg/injection, schedule: Q01DX009 (ip), vehicle: saline 177 % of control | dose: 16.0 mg/kg/injection, schedule: Q04DX003 (ip), vehicle: Klucel (hydroxypropylcellulose) (HPC) 175 % of control | dose: 17.3 mg/kg/injection, schedule: Q04DX003 (ip), vehicle: saline 216 % of control and 241 % of control | dose: 18.0 mg/kg/injection, schedule: Q01DX009 (sc), vehicle: saline 205 % of control | dose: 20.0 mg/kg/injection, schedule: Q01DX001 (ip), vehicle: saline 163 % of control | dose: 20.0 mg/kg/injection, schedule: Q01DX005 (iv), vehicle: saline 173 % of control | dose: 21.6 mg/kg/injection, schedule: Q01DX001 (ip), vehicle: saline 178 % of control and 213 % of control | dose: 25.0 mg/kg/injection, schedule: Q01DX005 (iv), vehicle: saline 178 % of control | dose: 25.0 mg/kg/injection, schedule: Q04DX003 (ip), vehicle: Klucel (hydroxypropylcellulose) (HPC) 157 % of control | dose: 25.0 mg/kg/injection, schedule: Q04DX003 (ip), vehicle: saline 246 % of control | dose: 28.8 mg/kg/injection, schedule: Q04DX003 (ip), vehicle: saline 252 % of control | dose: 30.0 mg/kg/injection, schedule: Q01DX009 (sc), vehicle: saline 227 % of control | dose: 32.0 mg/kg/injection, schedule: Q04DX003 (ip), vehicle: saline 166 % of control | dose: 36.0 mg/kg/injection, schedule: Q01DX001 (ip), vehicle: saline 209 % of control and 233 % of control | dose: 40.0 mg/kg/injection, schedule: Q01DX001 (ip), vehicle: saline 197 % of control | dose: 40.0 mg/kg/injection, schedule: Q01DX005 (ip), vehicle: saline 250 % of control | dose: 40.0 mg/kg/injection, schedule: Q04DX003 (ip), vehicle: saline 214 % of control | dose: 50.0 mg/kg/injection, schedule: Q04DX003 (ip), vehicle: Klucel (hydroxypropylcellulose) (HPC) 150 % of control and 174 % of control | dose: 50.0 mg/kg/injection, schedule: Q04DX003 (ip), vehicle: saline 192 % of control | dose: 60.0 mg/kg/injection, schedule: Q01DX001 (ip), vehicle: saline 218 % of control and 224 % of control | dose: 64.0 mg/kg/injection, schedule: Q04DX003 (ip), vehicle: Klucel (hydroxypropylcellulose) (HPC) 163 % of control | dose: 64.0 mg/kg/injection, schedule: Q04DX003 (ip), vehicle: saline 166 % of control and 201 % of control | dose: 80.0 mg/kg/injection, schedule: Q01DX001 (ip), vehicle: saline 241 % of control | dose: 96.0 mg/kg/injection, schedule: Q04DX003 (ip), vehicle: saline 152 % of control and 153 % of control | dose: 100.0 mg/kg/injection, schedule: Q01DX001 (ip), vehicle: saline 210 % of control | dose: 100.0 mg/kg/injection, schedule: Q04DX003 (ip), vehicle: Klucel (hydroxypropylcellulose) (HPC) 176 % of control and 178 % of control | dose: 128.0 mg/kg/injection, schedule: Q04DX003 (ip), vehicle: saline 173 % of control and 186 % of control | dose: 167.0 mg/kg/injection, schedule: Q01DX001 (ip), vehicle: saline 216 % of control | dose: 192.0 mg/kg/injection, schedule: Q04DX003 (ip), vehicle: saline 150 % of control | dose: 200.0 mg/kg/injection, schedule: Q04DX003 (ip), vehicle: Klucel (hydroxypropylcellulose) (HPC) 157 % of control
inactive: dose: 0.1 mg/kg/injection, schedule: Q04DX003 (ip), vehicle: saline 108 % of control | dose: 0.3 mg/kg/injection, schedule: Q04DX003 (ip), vehicle: saline 116 % of control | dose: 0.5 mg/kg/injection, schedule: Q04DX003 (ip), vehicle: saline 118 % of control | dose: 1.0 mg/kg/injection, schedule: Q04DX003 (ip), vehicle: saline 110 % of control and 115 % of control | dose: 2.0 mg/kg/injection, schedule: Q04DX003 (ip), vehicle: saline 117 % of control | dose: 3.13 mg/kg/injection, schedule: Q01DX005 (iv), vehicle: saline 114 % of control | dose: 3.89 mg/kg/injection, schedule: Q01DX009 (sc), vehicle: saline 118 % of control | dose: 4.0 mg/kg/injection, schedule: Q04DX003 (ip), vehicle: saline 117 % of control | dose: 5.0 mg/kg/injection, schedule: Q01DX005 (iv), vehicle: saline 116 % of control | dose: 6.22 mg/kg/injection, schedule: Q04DX003 (iv), vehicle: saline 109 % of control and 118 % of control | dose: 7.78 mg/kg/injection, schedule: Q01DX001 (iv), vehicle: saline 107 % of control and 111 % of control | dose: 10.0 mg/kg/injection, schedule: Q01DX001 (iv), vehicle: saline 107 % of control | dose: 10.0 mg/kg/injection, schedule: Q04DX003 (iv), vehicle: saline 108 % of control | dose: 10.4 mg/kg/injection, schedule: Q04DX003 (iv), vehicle: saline 117 % of control | dose: 13.0 mg/kg/injection, schedule: Q01DX001 (iv), vehicle: saline 111 % of control and 112 % of control | dose: 15.0 mg/kg/injection, schedule: Q01DX009 (ip), vehicle: saline 113 % of control | dose: 20.0 mg/kg/injection, schedule: Q01DX001 (iv), vehicle: saline 115 % of control | dose: 21.6 mg/kg/injection, schedule: Q01DX001 (iv), vehicle: saline 117 % of control | dose: 24.0 mg/kg/injection, schedule: Q04DX003 (ip), vehicle: saline 116 % of control | dose: 25.0 mg/kg/injection, schedule: Q01DX009 (ip), vehicle: water 122 % of control | dose: 32.0 mg/kg/injection, schedule: Q04DX003 (ip), vehicle: Klucel (hydroxypropylcellulose) (HPC) 114 % of control | dose: 36.0 mg/kg/injection, schedule: Q01DX005 (ip), vehicle: saline 121 % of control

CC(=O)Nc1cc(Cl)cc2c1-c1ccc(Cl)cc1C2=O
inactive: dose: 50.0 mg/kg/injection, schedule: Q01DX005 (ip), vehicle: Klucel (hydroxypropylcellulose) (HPC) 88 % of control | dose: 100.0 mg/kg/injection, schedule: Q01DX005 (ip), vehicle: Klucel (hydroxypropylcellulose) (HPC) 94 % of control

— PubChem BioAssay AID330 (DTP/NCI, 2004)
